US10988477B2 (Merck Patent GmbH, priority 2018, dated 2021)

Experiments:
[1] = tested on: primary human pan T-cells; experiment: Human IL-2 assay for GCN2 inhibition (IL-2 secretion by T cells in low amino acid condition); format: cell-based; conditions: T-cell; IL-2 secretion from human T cells, anti-CD3/CD28 stimulation, 96 hours; read-out: IL2/T-cell EC50
From the text: Tumor microenvironment is profoundly immuno-suppressive. This may be attributed to the depletion of amino acids (like arginine and tryptophan) which triggers the activation of GCN2 in immune cells, including T cell and myeloid cells. In T cells, activation of GCN2 leads to reduce effector functions of CD8 T cells and induction and/or maintenance of immuno-suppressive T-regs. Inhibition of that immuno-suppressive response by GCN2 inhibitors enables an anti-cancer immune response by activating effector T-cells. Herein we describe an in-vitro system we established using human T-cells stimulated in low amino acid condition in order to engage the GCN2 biology. The method described involves the modulation of IL-2 levels secreted by human T cells in responses to the GCN2 inhibitors disclosed herein.
Amino acid-free RPMI was reconstituted with all but one of the amino acids found in standard RMPI (e.g. Arginine, Tryptophan), 10% charcoal-stripped fetal bovine serum, 100 Units/mL penicillin and 0.1 mg/mL streptomycin. Primary human pan T-cells were isolated using Pan T Cell Isolation Kit, human (MACS Miltenyi biotech Cat #Order no. 130-096-535) from apheresis cones and 5×104 pan T-cells per well. The purified T cells are seeded in Nunc™ 96-Well Polystyrene Round Bottom Microwell Plates (the cells are rested in No TRP media in a 15 ml falcon tube in the incubator for 30-45 minutes while titrations for tryptophan and the GCN2 inhibitor compound are made) A plate matrix was developed to titrate both a GCN2 inhibitor and the amino acid of interest ranging from “No Amino Acid” condition, up to the concentration found in the regular RPMI media (20 μM for TRP and 950 μM for Arginine). The cells were incubated for 30 min at 37° C. with the GCN2 inhibitor and then stimulated with 5×104 anti-CD3/CD28 Dynabeads® per well. After 96 hours of incubation the IL-2 level in the supernatant were measured using ELISA (R&D systems Cat #DY202 (Human IL-2 DuoSet ELISA). Data were plotted in GraphPad Prism software and EC50 is calculated.

[2] = molecular target: intracellular GCN2 (phosphorylation of the GCN2 substrate eIF2α) (Homo sapiens, UniProt Q9P2K8); experiment: GCN2 cellular inhibition assay (AlphaScreen SureFire P-eIF2α Ser51, borrelidin-treated U2OS cells); format: cell-based; conditions: biomarker assay, phosphorylated eIF2α Ser51 in borrelidin-treated U2OS cells
Procedure, shortened: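 U2OS cells adhered overnight, then treated with compounds (4-fold serial dilutions from 40 μM final) plus borrelidin 10 μM final for 1 h at 37 °C. Lysate eIF2α Ser51 phosphorylation measured by AlphaScreen SureFire. Percent inhibition calculated relative to borrelidin-only wells.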

GCN2 kinase = GCN2 kinase (Homo sapiens, UniProt Q9P2K8); experiment: GCN2 enzyme inhibition assay (Transcreener ADP2 fluorescence polarization); format: biochemical; conditions: 280 μM ATP, 4 nM GCN2 kinase
Procedure, shortened: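 4 nM GCN2 + 200 μM (RS)7 + compound (0–8 μM), 10 min preinc.; start with ATP (280 μM final); 1 h, 25 °C; pH 7.5 Tris/NaCl/MgCl2/DTT; ADP FP readout; IC50, Ki(app) via tight-binding fit.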

intracellular GCN2 (phosphorylation of the GCN2 substrate eIF2α), sequence (Q9P2K8 whole entry): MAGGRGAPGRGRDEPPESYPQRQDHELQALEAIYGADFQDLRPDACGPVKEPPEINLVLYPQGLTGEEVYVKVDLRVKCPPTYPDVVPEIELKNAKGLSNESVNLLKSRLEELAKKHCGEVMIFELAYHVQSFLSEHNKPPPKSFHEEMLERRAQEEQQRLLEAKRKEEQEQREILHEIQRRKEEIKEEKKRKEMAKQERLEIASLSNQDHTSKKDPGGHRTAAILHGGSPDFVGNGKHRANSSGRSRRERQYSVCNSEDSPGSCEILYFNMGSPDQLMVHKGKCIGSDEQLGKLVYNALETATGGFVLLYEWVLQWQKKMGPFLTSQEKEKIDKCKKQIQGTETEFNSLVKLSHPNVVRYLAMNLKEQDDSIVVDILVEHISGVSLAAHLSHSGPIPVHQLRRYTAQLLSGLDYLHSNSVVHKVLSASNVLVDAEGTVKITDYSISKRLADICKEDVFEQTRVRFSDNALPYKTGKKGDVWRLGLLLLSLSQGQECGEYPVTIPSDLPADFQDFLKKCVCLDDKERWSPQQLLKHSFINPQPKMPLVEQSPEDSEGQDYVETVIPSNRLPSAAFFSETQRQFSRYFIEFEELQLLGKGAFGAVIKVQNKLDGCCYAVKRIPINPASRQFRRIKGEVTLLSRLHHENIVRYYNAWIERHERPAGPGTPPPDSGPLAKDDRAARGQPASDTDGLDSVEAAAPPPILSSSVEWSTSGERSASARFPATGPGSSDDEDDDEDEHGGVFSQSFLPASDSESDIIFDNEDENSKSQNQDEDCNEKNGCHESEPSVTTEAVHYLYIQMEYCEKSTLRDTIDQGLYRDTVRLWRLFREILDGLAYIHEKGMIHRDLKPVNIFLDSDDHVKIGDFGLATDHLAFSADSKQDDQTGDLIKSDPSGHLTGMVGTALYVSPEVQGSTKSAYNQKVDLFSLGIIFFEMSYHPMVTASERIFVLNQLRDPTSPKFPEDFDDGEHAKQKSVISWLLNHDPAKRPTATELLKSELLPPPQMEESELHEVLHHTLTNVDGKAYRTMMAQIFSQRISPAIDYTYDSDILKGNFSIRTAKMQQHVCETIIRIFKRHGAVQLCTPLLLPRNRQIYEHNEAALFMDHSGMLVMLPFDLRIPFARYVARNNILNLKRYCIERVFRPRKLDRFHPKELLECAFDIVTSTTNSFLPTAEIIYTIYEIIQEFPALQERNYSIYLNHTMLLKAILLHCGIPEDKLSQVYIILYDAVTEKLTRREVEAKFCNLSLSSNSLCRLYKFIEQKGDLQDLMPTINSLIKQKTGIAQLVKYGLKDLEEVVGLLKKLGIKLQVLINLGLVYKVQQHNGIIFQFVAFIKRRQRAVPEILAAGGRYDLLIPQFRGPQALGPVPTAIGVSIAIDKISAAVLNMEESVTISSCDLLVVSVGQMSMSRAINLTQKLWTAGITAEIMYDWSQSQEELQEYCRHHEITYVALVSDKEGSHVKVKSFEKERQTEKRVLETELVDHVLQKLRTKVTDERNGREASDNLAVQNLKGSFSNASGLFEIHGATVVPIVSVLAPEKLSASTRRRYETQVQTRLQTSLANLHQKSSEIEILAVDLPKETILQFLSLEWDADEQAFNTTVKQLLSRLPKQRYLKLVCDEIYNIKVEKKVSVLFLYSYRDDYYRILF
GCN2 kinase, sequence (Q9P2K8 whole entry): as above

SMILES | EC50 [1] [nM] | IC50 ([2]; compounds of Formula II) [nM] | IC50 (GCN2 kinase; compounds of Formula II) [nM] | IC50 ([2]; compounds of Formula IV) [nM] | IC50 (GCN2 kinase; compounds of Formula IV) [nM]
C[C@H]1[C@@H](CNS(C)(=O)=O)N(C2CC2)CCN1c1cc(-c2cnc3ccc(C(F)F)nn23)ncn1 [II-752, N-(((2R,3S)-1-cyclopropyl-4-(6-(6-(difluoromethyl)imidazo[12-b]pyridazin-3-yl)pyrimidin-4-yl)-3-methylpiperazin-2-yl)methyl)methanesulfonamide] | < 100 | < 500 | < 10 |  | 
Cc1[nH]ncc1[C@H]1CN(c2cc(-c3cnc4ccc(C(F)(F)F)nn34)ncn2)C[C@@H](C)O1 [II-768, (2R,6S)-2-methyl-6-(5-methyl-1H-pyrazol-4-yl)-4-(6-(6-(trifluoromethyl)imidazo[1,2-b]pyridazin-3-yl)pyrimidin-4-yl)morpholine] | > 500 | < 500 | < 10 |  | 
C[C@H]1C[C@@H](c2c[nH]nc2F)CN(c2ccnc(-c3cnc4cnc(C(F)(F)F)cn34)n2)C1 [IV-767] | 100 to 500 |  |  | < 500 | < 10
Cc1n[nH]cc1[C@H]1C[C@@H](O)CN(c2ccnc(-c3cnc4cnc(C(F)(F)F)cn34)n2)C1 [IV-776, (3R,5R)-5-(3-methyl-1H-pyrazol-4-yl)-1-(2-(6-(trifluoromethyl)imidazo[1,2-a]pyrazin-3-yl)pyrimidin-4-yl)piperidin-3-ol] | > 500 |  |  | 500 to 5000 | < 10
